Assay results as given in patent US20220387342A1, “TRANSDERMAL PATCH” (University of Sunderland, priority 2019, published 2022).
In brackets after ≈: the same amount, converted by molar mass. Where a name gives a salt, the structure may show the parent alone.

Columns and labels:
[1] = tertiary aliphatic nitrogen; cited from earlier work
[2] = system: bacteria, yeasts and moulds; assay: Small scale study of microbial growth in naltrexone solutions; conditions: for bacterial colony count: after 3 weeks incubation time; for microbial growth: summary b334
Experimental: This was also evidenced in a small scale study in which the microbial growth in solutions of naltrexone base and naltrexone hydrochloride were compared to a control after being stored for 25 days at 27° C. […] After 48 hours, the bacterial colony count increased to approximately 10^4 CFU/mL in the control sample and to approximately 10^2 CFU/mL in the NTX base sample. […] After 3 weeks incubation time, the bacterial colony count increased to ˜10^5 CFU/mL on the control sample, ˜10^3 CFU/mL for naltrexone base and ˜10^2 CFU/mL for naltrexone hydrochloride. Thus, a longer incubation time was required for growth of microbial colonies in the medicated samples.

[3] = cited from earlier work
[4] = Stability study: drug content of hydrogel films after storage (HPLC), shelf life estimate; type: physicochemical; conditions: 0-6 months, ambient and accelerated
Experimental: The stability of the transdermal patch of the invention may be investigated over the course of 6 months under ambient (20.9±0.6° C./43±2.5% RH) and accelerated (40° C./75% RH) conditions. The patches are tested at time intervals of 0, 1, 2, 3 and 6 months to determine the extent of any physical, chemical and microbial changes that may have occurred.
Packaged pouches were either placed under ambient conditions (20.9±0.7° C./46.0±3.1% RH) or under accelerated conditions (40° C./75% RH), for 6 months with intermediate testing at 0, 1, 2, 3 and 6 months according to the protocol in Table 7.
To quantify the amount of drug present at each time point, hydrogel films were removed from each patch (n=3) at 0, 1, 3 and 6 months and dissolved in 5 mL 80% v/v acetonitrile for 16 hours at 30° C. in an Elmasonic S 30 H sonicating water bath (Elma Schmidbauer, Singen, Germany). After 16 hours, the samples were filtered using 0.2 μm Whatman syringeless filters vials with nylon filter media and polypropylene housing (GE Healthcare UK Ltd., Little Chalfont, Buckinghamshire, UK) and injected in triplicate to the HPLC.
Based on the drug content of the hydrogels only, a shelf life may be predicted by extrapolating the data and calculating how long it would take to reach 90% of the stated dose. […]

[5] = Differential scanning calorimetry: drug crystallinity and saturation in PEO films; type: physicochemical; conditions: from plot of enthalpy of fusion against drug concentration, y = 0
Experimental: Differential scanning calorimetry (DSC) of NTX.base, NTX.HCl, PEO and loaded hydrogel films (irradiated and non-irradiated) may be performed with suitable DSC instruments, such as a DSC Q1000 (TA Instruments, New Castle, Del., USA). The DSC was conditioned for two hours prior to use. Samples (5-10 mg) were accurately weighed using a microbalance (Mettler-Toledo, Greifensee, Switzerland), placed in an aluminium hermetic sample pan and sealed with a hermetic lid (TA Instruments, New Castle, Del., USA). The samples were subjected to standard heat/cool/heat at a rate of 10° C./min, under a constant flow of nitrogen at a rate of 50 mL/min. Suitable settings include the following: • For NTX.base API and NTX.base loaded films, the heat/cool/heat cycle was from −80° C. to 200° C. to −80° C. to 200° C. • NTX.HCl API was heated from −80° C. to 285° C., then cooled to −80° C., and then heated for a second time to 285° C. […]
DSC analysis was performed, in accordance with the method described in the “Assays” part of the present disclosure. […] From the enthalpy of fusion values for NTX.HCl within the films, the saturation solubility of naltrexone hydrochloride within PEO was calculated by plotting enthalpy against drug concentration. […]

[6] = system: bacteria, moulds and yeasts; assay: Stability study: microbiology of patches (Mikrocount duo dipslides); conditions: storage up to 6 months, ambient and accelerated
Experimental: Mikrocount® duo dipslides (Schulke & Mayr GmbH, Norderstedt, Germany) were used to determine total plate count and to detect presence of moulds and yeasts. The surface of each side of the dipslide was placed in contact with the hydrogel surface of the patch for 5 seconds. The dipslides were then placed in their sealed container and incubated for 72 hours at 27±1° C. Once incubated, the dipslides were compared to images within the Mikrocount® brochure to evaluate the colony forming units per cm^2.

For `O=C1CC[C@@]2(O)[C@H]3Cc4ccc(O)c5c4[C@@]2(CCN3CC2CC2)[C@H]1O5` [naltrexone base, 17-(Cyclopropylmethyl)-4,5α-epoxy-3,14-dihydroxymorphinan-6-one], the pKa [1] is given as 8.3, the yeasts or moulds ([2]; any incubation time point) is given as “No yeasts or moulds were detected” and the bacterial colony count ([2]; solutions) is given as ~10^3 CFU/mL. For the same molecule, the microbial growth ([2]; solutions) was “approximately 10^3 CFU/mL”, the aqueous solubility [3] was 510 µg/mL (≈ 1490 µM) and the “degradation of naltrexone under storage (HPLC chromatograms)” value [4] was “did not degrade under storage into any other compounds”.
With `O=C1CC[C@@]2(O)[C@H]3Cc4ccc(O)c5c4[C@@]2(CCN3CC2CC2)[C@H]1O5` [naltrexone hydrochloride] the bacterial colony count ([2]; solutions, hydrochloride) was “approximately 10^2 CFU/mL”, the bacterial growth ([2]; solutions, after 72 hours) was “Negligible bacterial growth” and the microbial growth ([2]; solutions, hydrochloride) was “approximately 10^2 CFU/mL”. For the same molecule, the “maximum drug loading before crystals are loaded to the film (saturation solubility within PEO)” value [5] was 4.40 % w/w.
In the case of `CC(O)CO` (centres unmarked) [propylene glycol], the “microbial growth on patches” value [6] is reported as “prevented bacteria, yeast and mould from growing at all throughout the study”.
